Holding throughout (type): biochemical
Conditions in all cases: 33P ATP, room temperature, 120 m

One experiment has as its target EGFR (D746-750/C797S) (Homo sapiens, UniProt P00533, C797S/DEL746-750). Nature of the experiment: HotSpot radiometric kinase assay, inhibition of EGFR 746-750/C797S mutant. How it is done: (§1) Biochemical Assays for inhibition of wild-type and mutant EGFRs
(§2) Briefly, specific kinase/substrate pairs along with required cofactors were prepared in reaction buffer; 20 mM HEPES pH 7.5, 10 mM […], 1 mM EGTA, 0.02% Brij35, 0.02 mg/ml BSA, 0.1 mM Na3VO4, 2 mM DTT, 1% DMSO. Compounds were delivered into the reaction, followed ~20 minutes later by addition of a mixture of ATP (Sigma, St. Louis MO) and ^33P ATP (Perkin Elmer, Waltham MA) to a final concentration of […]. Reactions were carried out at room temperature for 120 m, followed by spotting of the reactions onto P81 ion exchange filter paper (Whatman Inc., Piscataway, NJ). Unbound phosphate was removed by extensive washing of filters in 0.75% phosphoric acid. […] IC50 values and curve fits were obtained using Prism (GraphPad Software).

The target of a further experiment is EGFR (D746-750) (Homo sapiens, UniProt P00533, DEL746-750). Nature of the experiment: HotSpot radiometric kinase assay, inhibition of EGFR 746-750 mutant. The procedure: as §1, §2
A further experiment addresses EGFR (L858R/T790M/C797S) (Homo sapiens, UniProt P00533, C797S/L858R/T790M). Nature of the experiment: HotSpot radiometric kinase assay, inhibition of EGFR L858R/T790M/C797S mutant. The procedure:
as §1, §2

The next experiment addresses EGFR (D770_N771insNPG) (Homo sapiens, UniProt P00533, INS770NPG). Nature of the experiment: HotSpot radiometric kinase assay, inhibition of EGFR (D770_N771insNPG) mutant. How it is done:
as §1, §2

Each structure is given as a SMILES string.

EGFR (D746-750/C797S), sequence (P00533 with tags, fused parts or gaps DEL746-750/C797S): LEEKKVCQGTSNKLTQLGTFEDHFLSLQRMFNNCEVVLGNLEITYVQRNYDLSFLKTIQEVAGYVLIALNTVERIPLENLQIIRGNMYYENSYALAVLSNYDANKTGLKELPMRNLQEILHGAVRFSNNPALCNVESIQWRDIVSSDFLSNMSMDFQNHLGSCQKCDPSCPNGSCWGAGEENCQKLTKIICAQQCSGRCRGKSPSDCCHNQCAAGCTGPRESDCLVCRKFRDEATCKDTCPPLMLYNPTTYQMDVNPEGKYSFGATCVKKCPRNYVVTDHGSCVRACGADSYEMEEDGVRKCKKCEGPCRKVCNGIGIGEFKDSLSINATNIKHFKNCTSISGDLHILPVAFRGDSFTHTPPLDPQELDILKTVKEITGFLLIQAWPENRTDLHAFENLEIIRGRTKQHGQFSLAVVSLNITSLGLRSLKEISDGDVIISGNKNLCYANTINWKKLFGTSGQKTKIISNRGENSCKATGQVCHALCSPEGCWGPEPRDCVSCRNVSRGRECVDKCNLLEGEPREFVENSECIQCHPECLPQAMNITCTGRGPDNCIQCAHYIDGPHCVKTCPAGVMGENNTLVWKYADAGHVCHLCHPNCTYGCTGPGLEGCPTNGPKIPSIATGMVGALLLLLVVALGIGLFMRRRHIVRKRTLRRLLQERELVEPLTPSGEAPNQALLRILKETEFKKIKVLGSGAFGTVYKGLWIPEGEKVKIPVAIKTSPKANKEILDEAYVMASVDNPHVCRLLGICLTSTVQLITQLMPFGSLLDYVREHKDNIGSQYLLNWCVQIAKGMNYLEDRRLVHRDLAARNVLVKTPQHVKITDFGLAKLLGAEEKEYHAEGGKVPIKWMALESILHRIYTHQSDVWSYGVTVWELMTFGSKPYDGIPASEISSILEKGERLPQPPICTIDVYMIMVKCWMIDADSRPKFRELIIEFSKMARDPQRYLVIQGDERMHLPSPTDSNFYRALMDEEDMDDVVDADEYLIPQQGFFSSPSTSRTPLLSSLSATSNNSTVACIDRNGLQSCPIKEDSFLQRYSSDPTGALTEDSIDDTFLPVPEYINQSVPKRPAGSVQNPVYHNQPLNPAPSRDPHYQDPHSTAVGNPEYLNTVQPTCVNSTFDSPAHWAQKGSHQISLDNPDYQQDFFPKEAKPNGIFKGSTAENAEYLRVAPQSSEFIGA
EGFR (D770_N771insNPG), sequence (P00533 with tags, fused parts or gaps INS770NPG limits assumed): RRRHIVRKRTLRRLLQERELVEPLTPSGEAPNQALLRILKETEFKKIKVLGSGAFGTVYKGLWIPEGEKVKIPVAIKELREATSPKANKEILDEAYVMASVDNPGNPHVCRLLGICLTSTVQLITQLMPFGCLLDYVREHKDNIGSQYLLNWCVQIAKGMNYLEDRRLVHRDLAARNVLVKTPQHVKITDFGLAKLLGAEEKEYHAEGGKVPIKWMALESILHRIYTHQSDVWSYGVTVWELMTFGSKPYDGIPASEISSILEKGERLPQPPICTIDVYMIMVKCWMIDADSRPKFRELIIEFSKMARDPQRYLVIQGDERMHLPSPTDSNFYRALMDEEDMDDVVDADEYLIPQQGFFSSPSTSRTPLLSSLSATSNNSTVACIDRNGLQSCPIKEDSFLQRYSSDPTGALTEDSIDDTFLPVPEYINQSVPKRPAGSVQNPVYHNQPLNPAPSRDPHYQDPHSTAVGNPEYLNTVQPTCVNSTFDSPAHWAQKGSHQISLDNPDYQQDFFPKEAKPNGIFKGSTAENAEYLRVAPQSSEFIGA
EGFR (D746-750), sequence (P00533 with tags, fused parts or gaps DEL746-750): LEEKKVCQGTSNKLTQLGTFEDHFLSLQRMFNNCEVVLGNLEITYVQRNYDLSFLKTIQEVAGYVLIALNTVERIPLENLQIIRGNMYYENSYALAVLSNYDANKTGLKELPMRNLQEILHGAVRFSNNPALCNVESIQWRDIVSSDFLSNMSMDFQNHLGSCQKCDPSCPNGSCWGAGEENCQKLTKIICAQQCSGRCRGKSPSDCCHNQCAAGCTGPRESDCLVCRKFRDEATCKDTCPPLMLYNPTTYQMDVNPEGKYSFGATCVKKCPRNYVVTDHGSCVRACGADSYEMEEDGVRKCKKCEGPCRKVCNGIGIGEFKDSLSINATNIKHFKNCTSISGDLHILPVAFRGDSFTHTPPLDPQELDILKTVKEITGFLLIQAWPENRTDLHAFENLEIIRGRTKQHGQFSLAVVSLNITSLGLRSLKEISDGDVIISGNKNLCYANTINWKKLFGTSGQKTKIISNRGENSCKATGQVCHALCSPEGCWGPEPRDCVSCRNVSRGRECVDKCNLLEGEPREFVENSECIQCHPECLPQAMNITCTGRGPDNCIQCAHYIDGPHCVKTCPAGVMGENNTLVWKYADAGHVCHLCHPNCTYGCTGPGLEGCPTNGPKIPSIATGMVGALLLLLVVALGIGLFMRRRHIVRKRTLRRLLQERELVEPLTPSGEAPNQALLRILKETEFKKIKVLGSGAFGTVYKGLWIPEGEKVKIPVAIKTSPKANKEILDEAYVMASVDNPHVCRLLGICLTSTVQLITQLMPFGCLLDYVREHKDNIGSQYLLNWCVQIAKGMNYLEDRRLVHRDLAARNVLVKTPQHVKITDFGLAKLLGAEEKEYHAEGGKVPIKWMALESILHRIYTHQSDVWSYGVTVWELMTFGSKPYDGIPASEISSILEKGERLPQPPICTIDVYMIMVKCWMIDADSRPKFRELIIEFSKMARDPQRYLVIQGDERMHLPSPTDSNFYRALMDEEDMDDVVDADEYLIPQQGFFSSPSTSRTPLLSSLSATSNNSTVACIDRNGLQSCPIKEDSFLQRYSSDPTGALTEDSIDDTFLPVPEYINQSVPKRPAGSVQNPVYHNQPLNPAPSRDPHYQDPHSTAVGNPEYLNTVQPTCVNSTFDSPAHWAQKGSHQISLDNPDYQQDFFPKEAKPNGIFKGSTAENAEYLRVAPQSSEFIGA
EGFR (L858R/T790M/C797S), sequence (P00533 25-1210 T790M/C797S/L858R): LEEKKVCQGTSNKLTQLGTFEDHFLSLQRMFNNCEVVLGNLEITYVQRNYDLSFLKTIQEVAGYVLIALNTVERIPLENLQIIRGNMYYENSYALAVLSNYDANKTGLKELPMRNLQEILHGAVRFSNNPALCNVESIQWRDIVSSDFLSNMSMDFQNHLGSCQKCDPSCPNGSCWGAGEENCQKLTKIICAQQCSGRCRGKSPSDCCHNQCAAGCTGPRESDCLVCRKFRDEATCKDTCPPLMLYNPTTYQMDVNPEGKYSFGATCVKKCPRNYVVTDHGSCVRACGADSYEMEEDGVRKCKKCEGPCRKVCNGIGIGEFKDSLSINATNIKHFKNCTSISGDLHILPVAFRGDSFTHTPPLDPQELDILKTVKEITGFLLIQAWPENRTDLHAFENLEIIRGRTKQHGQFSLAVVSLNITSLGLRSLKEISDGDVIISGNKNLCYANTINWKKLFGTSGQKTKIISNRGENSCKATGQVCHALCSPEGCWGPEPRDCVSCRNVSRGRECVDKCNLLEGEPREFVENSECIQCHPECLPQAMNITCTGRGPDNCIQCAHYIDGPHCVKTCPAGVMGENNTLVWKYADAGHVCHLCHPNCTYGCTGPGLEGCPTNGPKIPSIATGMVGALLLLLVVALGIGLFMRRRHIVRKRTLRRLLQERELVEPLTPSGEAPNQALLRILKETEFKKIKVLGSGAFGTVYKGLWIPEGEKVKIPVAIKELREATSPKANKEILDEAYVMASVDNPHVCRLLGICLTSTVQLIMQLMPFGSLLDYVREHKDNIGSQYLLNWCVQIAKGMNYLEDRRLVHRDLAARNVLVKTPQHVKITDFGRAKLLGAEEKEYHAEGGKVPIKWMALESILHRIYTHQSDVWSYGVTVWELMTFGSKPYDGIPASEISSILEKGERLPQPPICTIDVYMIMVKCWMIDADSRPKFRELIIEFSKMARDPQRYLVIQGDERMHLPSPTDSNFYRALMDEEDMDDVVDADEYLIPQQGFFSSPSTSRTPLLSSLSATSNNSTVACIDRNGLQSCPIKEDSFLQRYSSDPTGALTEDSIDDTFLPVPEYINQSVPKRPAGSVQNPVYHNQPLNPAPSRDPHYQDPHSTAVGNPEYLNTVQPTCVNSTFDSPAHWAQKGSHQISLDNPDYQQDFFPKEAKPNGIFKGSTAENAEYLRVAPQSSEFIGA

Take `Cc1nn([C@@H](C)CO)c2c1/C=C/c1n[nH]c3cnc(cc13)-c1c(C)nn(C)c1O[C@@H](C)CN(C)C2` [Ex. 46, (2S)-2-[(10S,17E)-6,8,10,12,16-pentamethyl-2,8,10,11,12,13-hexahydro-14H-5,3-(azenometheno)tripyrazolo[3,4-f:3′,4′-j:4″,3″-n][1,4]oxazacyclopentadecin-14-yl]propan-1-ol]: the IC50 was 0.4 nM against EGFR (D746-750/C797S), 0.15 nM against EGFR (D746-750), 0.23 nM at EGFR (L858R/T790M/C797S) and 0.36 nM at EGFR (D770_N771insNPG).
For the compound `Cc1nn(C)c2c1-c1cc3c(n[nH]c3cn1)/C=C/c1c(OCC#N)nn(CCO)c1CN(C)[C@H](C)CO2` [Ex. 49, {[(11R,17E)-14-(2-hydroxyethyl)-6,8,11,12-tetramethyl-2,10,11,12,13,14-hexahydro-8H-5,3-(azenometheno)tripyrazolo[3,4-f:3′,4′-j:4″,3″-n][1,4]oxazacyclopentadecin-16-yl]oxy}acetonitrile], the concentration for half-maximal inhibition (IC50) amounted to 0.34 nM against EGFR (D746-750/C797S), 0.12 nM at EGFR (D746-750), 0.21 nM against EGFR (L858R/T790M/C797S) and 0.19 nM against EGFR (D770_N771insNPG).
For `Cc1nn(CCO)c2c1/C=C/c1n[nH]c3c(C)nc(cc13)-c1cnn(C)c1O[C@@H](C)CN(C)C2` [Ex. 51, 2-[(10S,17E)-8,10,12,16,20-pentamethyl-2,8,10,11,12,13-hexahydro-14H-5,3-(azenometheno)tripyrazolo[3,4-f:3′,4′-j:4″,3″-n][1,4]oxazacyclopentadecin-14-yl]ethan-1-ol], the IC50 is 0.83 nM at EGFR (D746-750/C797S), 0.31 nM on EGFR (D746-750), 0.37 nM on EGFR (L858R/T790M/C797S) and 1.11 nM at EGFR (D770_N771insNPG).
In the case of `Cc1nn(C)c2c1-c1cc3c(n[nH]c3c(C)n1)/C=C/c1c(OCC#N)nn([C@@H](C)CO)c1CN(C)C[C@H](C)O2` [Ex. 52], the IC50 against EGFR (D746-750/C797S) was 0.71 nM; against EGFR (D746-750), 0.21 nM; at EGFR (L858R/T790M/C797S), 0.46 nM; against EGFR (D770_N771insNPG) it was 0.25 nM.
As for `CCc1nn(CCO)c2c1/C=C/c1n[nH]c3cnc(cc13)-c1c(C)nn(C)c1O[C@H](C)CN(CC)C2` [Ex. 55, 2-[(10R,17E)-12,16-diethyl-6,8,10-trimethyl-2,8,10,11,12,13-hexahydro-14H-5,3-(azenometheno)tripyrazolo[3,4-f:3′,4′-j:4″,3″-n][1,4]oxazacyclopentadecin-14-yl]ethan-1-ol], the IC50 on EGFR (D746-750/C797S) was 0.72 nM; against EGFR (D746-750), 0.25 nM; at EGFR (L858R/T790M/C797S), 0.53 nM; at EGFR (D770_N771insNPG), 1.38 nM.
For the compound `CCN1CCOc2c(c(C)nn2C)-c2cc3c(n[nH]c3cn2)/C=C/c2c(OCC#N)nn([C@@H](C)CO)c2C1` [Ex. 66, {[(17E)-12-ethyl-4-[(2S)-1-hydroxypropan-2-yl]-6,8-dimethyl-2,10,11,12,13,14-hexahydro-8H-5,3-(azenometheno)tripyrazolo[3,4-f:3′,4′-j:4″,3″-n][1,4]oxazacyclopentadecin-16-yl]oxy}acetonitrile], the IC50 against EGFR (D746-750/C797S) amounted to 1.04 nM; against EGFR (D746-750) it was 0.36 nM; on EGFR (L858R/T790M/C797S), 0.54 nM; against EGFR (D770_N771insNPG), 0.42 nM.
Take `Cc1nn(C)c2c1-c1cc3c(n[nH]c3cn1)/C=C/c1c(OCC#N)nn([C@@H](C)CO)c1CN(C)CCO2` [Ex. 70, {[(17E)-14-[(2S)-1-hydroxypropan-2-yl]-6,8,12-trimethyl-2,10,11,12,13,14-hexahydro-8H-5,3-(azenometheno)tripyrazolo[3,4-f:3′,4′-j:4″,3″-n][1,4]oxazacyclopentadecin-16-yl]oxy}acetonitrile]: the IC50 turned out to be 0.69 nM against EGFR (D746-750/C797S), 0.16 nM against EGFR (D746-750), 0.31 nM against EGFR (L858R/T790M/C797S) and 0.41 nM against EGFR (D770_N771insNPG).

(Values after patent US20260317344A1, “EGFR INHIBITORS FOR TREATING DISEASE” (BLOSSOMHILL THERAPEUTICS, INC., priority 2023, published 2026).)
